Here are results for four compounds from EP2739262B1, “USE OF A CB1 RECEPTOR ANTAGONIST AS A WHITENING AND/OR ANTI-BROWNING AGENT FOR KERATIN MATERIAL” (L'OREAL, priority 2011, dated 2013).

Read-outs that look alike come from different tables or passages of the source.

Test [1] deals with mélanocytes épidermiques humains normaux (NHEM). In words: Melanin content of melanocytes (spectrophotometry at 450 nm). The format is cell-based. The settings on record: result in words; for quantité de mélanine dans les mélanocytes (NHEM): via the CB1 receptor. The procedure: Des mélanocytes épidermiques humains normaux (NHEM) isolés de prépuce et fournis par Promocell (Heidelberg, Allemagne), sont cultivés pendant 24h à 37°C dans une atmosphère humide à 5% de CO2 dans un milieu de culture adapté M2 (Promocell).
L'AEA et les autres composés sont ajoutés directement dans le milieu de culture. 24h après chaque traitement, la viabilité des cellules a été mesurée par l'utilisation du colorant d'exclusion bleu Trypan (Maccarone et al., 2003).
Le mAEA et l'AEA sont testés in vitro à une concentration de 1 µM et comparés. Le mAEA est aussi utilisé à cette concentration quand il est utilisé en combinaison avec le SR1 à 0,1 µM.
La quantité en mélanine présente dans les cellules NHEM est mesurée selon une méthode connue de l'homme du métier (Xiao et al., Arch Dermatol Res 2007; 299 : 245-57). Selon cette méthode, les cellules NHEM sont traitées à la trypsine et lavées deux fois avec un tampon phosphate salin. Ensuite les échantillons sont resuspendus dans 200 µl d'eau MilliQ et 1 ml d'un mélange éthanol : éther (1:1, vol/vol) est ajouté pour éliminer les substances opaques autres que la mélanine. Après 15 minutes, les échantillons sont centrifugés à 600g pendant 5 minutes. Le culot est séché à l'air et dissout dans 200 µl de soude 1N. Les échantillons sont ensuite chauffés à 80°C pendant une heure et refroidis.
La quantité de mélanine est déterminée par spectrophotométrie à 450 nm en utilisant les contrôles standards de mélanine fournis par Sigma Chemical Co., de façon à vérifier la gamme de linéarité de l'essai. La quantité de mélanine est exprimée par rapport au contrôle.
Les résultats donnés sont les moyennes avec leurs écarts type de 3 essais indépendants, chacun réalisé en triplicata. Ils ont été comparés par analyse de variance (ANOVA).

The subject of test [2] is epidermes reconstruits pigmentés (ERP). In words: Depigmenting effect on reconstructed pigmented epidermis (ERP): melanin quantified by image analysis of Fontana Masson stained sections. The format is cell-based, humains. As to conditions: for production de mélanine dans les épidermes pigmentés reconstruits: result in words. The procedure: Des épidermes pigmentés sont reconstruits sur un support collagénique (BPER) à l'aide de mélanocytes et kératinocytes humains normaux.
Les épidermes sont obtenus après 8 jours de reconstruction, les mélanocytes choisis sont de phototype estimé IV.1
Certains épidermes sont traités quotidiennement par le placebo, d'autres par le produit à tester […] à différentes concentrations (0,1 µM et 0,5µM).
Le produit à tester est évalué à deux concentrations en comparaison à son solvant seul (placebo) et à un actif dépigmentant de référence, le lucinol à 500µM. Les épidermes reconstruits ainsi traités sont irradiés ou non avec des UV.^2
Chaque condition expérimentale est réalisée en quadruplicat.
La qualité histologique des épidermes après traitement est évaluée sur coupes histologiques après coloration HES afin de déterminer l'impact du traitement sur les épidermes. Aussi la physiologie des mélanocytes est étudiée pour détecter une éventuelle mélano-cytotoxicité. Si aucune altération histologique ni aucun effet mélano-toxique du produit évalué n'est révélé, une quantification de la pigmentation est effectuée par quantification de la mélanine sur coupes histologiques par analyse d'images
Une quantification de la pigmentation par quantification microscopique de la mélanine est alors réalisée et permet d'objectiver une activité propigmentante du composé à tester.
La mélanine présente dans l'épiderme est colorée sur coupes histologiques (coloration Fontana Masson) puis quantifiée par analyse d'images. Pour cela, chaque épiderme est photographié sur toute sa largeur à l'aide d'un microscope. Environ 10 images sont acquises par épiderme (lumière blanche, grossissement X20).
La surface occupée par la mélanine est quantifiée à l'aide d'un logiciel d'analyse d'image développé à façon. Brièvement, chaque image est segmentée en 4 zones selon leur couleur (lumière, stratum corneum, épiderme vivant et BPER). La mélanine présente dans l'épiderme sous forme de grains noirs est seuillée comme étant la zone la plus sombre de l'épiderme sur le plan rouge. Les pixels occupés par la mélanine dans l'épiderme entier ou les couches vivantes sont ensuite quantifiés.
Cette quantification rend compte de la surface occupée par la mélanine ainsi que de la localisation moyenne de la mélanine dans l'épiderme.
Les résultats ci-dessous sont exprimés en pourcentage de stimulation relative par rapport au témoin cultivé en milieu de co-culture standard.

Consider `CCCCC/C=C\C/C=C\C/C=C\C/C=C\CCCC(=O)NCCO` [AEA, N-arachidonoylethanolamine], for which the “quantité de mélanine dans les mélanocytes (NHEM)” value in test [1] is “augmentent de manière significative la quantité de mélanine”.
Take `CCCCc1ccc(O)cc1O` [Lucinol]: the activity at 50 µM in test [2] (light or radiation study, 360 h, with UV irradiation, 50µM 150mJ/cm^2 UVB SYST D15, irradiated DMSO = 131,914894, read-out: mélanine, % par rapport au témoin (DMSO 1/1000 = 100)) was determined as 31.9%. For the same compound, the activity at 30 µM in test [2] (light or radiation study, 408 h, without UV irradiation, 30µM SYST D17, read-out: mélanine, % par rapport au témoin (DMSO 1/1000 = 100)) was 10.5%.
Regarding `Cc1c(C(=O)NN2CCCCC2)nn(-c2ccc(Cl)cc2Cl)c1-c1ccc(Cl)cc1` [SR141716, 5-(4-Chlorophenyl)-1-(2,4-dichloro-phenyl)-4-methyl-N-(piperidin-1-yl)-1H-pyrazole-3-carboxamide], the activity at 0.1 µM in test [2] (light or radiation study, 360 h, with UV irradiation, 0,1µM 150mJ/cm^2 UVB SYST D15, irradiated DMSO = 131,914894, read-out: mélanine, % par rapport au témoin (DMSO 1/1000 = 100)) is 76.6%; in test [2] (light or radiation study, 408 h, without UV irradiation, 0,1µM SYST D17, read-out: mélanine, % par rapport au témoin (DMSO 1/1000 = 100)), 64.5%. The activity at 0.5 µM in test [2] (light or radiation study, 360 h, with UV irradiation, 0,5µM 150mJ/cm^2 UVB SYST D15, irradiated DMSO = 131,914894, read-out: mélanine, % par rapport au témoin (DMSO 1/1000 = 100)) worked out at 55.3%; in test [2] (light or radiation study, 408 h, without UV irradiation, 0,5µM SYST D17, read-out: mélanine, % par rapport au témoin (DMSO 1/1000 = 100)), 72.4%. Also, the “production de mélanine dans les épidermes pigmentés reconstruits” value in test [2] (with UV irradiation, 0,1 and 0,5µM) is recorded as “diminution importante de la production de mélanine”; in test [2] (without UV irradiation, 0,1 and 0,5µM), “diminution importante de la production de mélanine”. The “effets pro-pigmentants du mAEA” value in test [1] (SR1 0,1 µM with mAEA 1 µM) is “empêche le mAEA d'avoir ses effets pro-pigmentants”.
Consider `CCCCC/C=C\C/C=C\C/C=C\C/C=C\CCCC(=O)N[C@H](C)CO` [mAEA, R(+)-arachidonyl-1'-hydroxy-2'-propylamide], for which the “quantité de mélanine dans les mélanocytes (NHEM)” value in test [1] was “augmentent de manière significative la quantité de mélanine”.
